# Experimental data as given in PubChem BioAssay (NCI).
#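 The compound was tested at five concentrations on cells cultured in 96-well plates, with a 48-hour exposure period. At the TGI there is no net growth.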
# Columns and labels:
# Assay in all cases: DTP human tumour cell line panel, 48 h
# [1] = tested on: OVCAR-8 ovarian
# [2] = tested on: NCI-H226 lung
# [3] = tested on: SNB-75 CNS
# [4] = tested on: CCRF-CEM leukemia
# [5] = tested on: LXFL 529 NSCLC
# [6] = tested on: RPMI-8226 leukemia
# [7] = tested on: 786-0 renal
# [8] = tested on: SR leukemia
# [9] = tested on: HS 578T breast
# [10] = tested on: SN12C renal
# [11] = tested on: SW-620 colon
# [12] = tested on: SF-539 CNS
# [13] = tested on: HOP-62 NSCLC
# [14] = tested on: RXF 393 renal
# [15] = tested on: T-47D breast
# [16] = tested on: LOX IMVI melanoma
# [17] = tested on: SK-OV-3 ovarian
# [18] = tested on: SNB-78 CNS
# [19] = tested on: IGROV1 ovarian
# [20] = tested on: MOLT-4 leukemia
# [21] = tested on: U251 CNS
# [22] = tested on: SNB-19 CNS
# [23] = tested on: HOP-92 NSCLC
# [24] = tested on: NCI/ADR-RES ovarian
# [25] = tested on: OVCAR-4 ovarian
# [26] = tested on: HT29 colon
# [27] = tested on: A549 NSCLC
# [28] = tested on: MDA-MB-231 breast
# [29] = tested on: MCF7 breast
# [30] = tested on: COLO 205 colon
# [31] = tested on: K-562 leukemia
# [32] = tested on: SF-295 CNS
# [33] = tested on: DMS 114 small cell lung
# [34] = tested on: KM12 colon
# [35] = tested on: UACC-257 melanoma
# [36] = tested on: SF-268 CNS
# [37] = tested on: KM20L2 colon
# [38] = tested on: NCI-H460 lung
# [39] = tested on: M14 melanoma
# [40] = tested on: TK-10 renal
# [41] = tested on: EKVX NSCLC
# [42] = tested on: NCI-H522 lung
# [43] = tested on: HCC-2998 colon
# [44] = tested on: DU-145 prostate
# [45] = tested on: HCT-15 colon
# [46] = tested on: MDA-N
# [47] = tested on: OVCAR-3 ovarian
# [48] = tested on: OVCAR-5 ovarian
# [49] = tested on: NCI-H23 lung
# [50] = tested on: M19-MEL melanoma
# [51] = tested on: SK-MEL-2 melanoma
# [52] = tested on: ACHN renal
# [53] = tested on: HCT-116 colon
# [54] = tested on: SK-MEL-28 melanoma
# [55] = tested on: MDA-MB-435
# [56] = tested on: HL-60(TB) leukemia
# [57] = tested on: PC-3 prostate
# [58] = tested on: UO-31 renal
# [59] = tested on: CAKI-1 renal
# [60] = tested on: SK-MEL-5 melanoma
# [61] = tested on: A498 renal
# [62] = tested on: BT-549 breast
# [63] = tested on: MALME-3M melanoma
# [64] = tested on: UACC-62 melanoma
# [65] = tested on: DLD-1 colon
structure (smiles),measurement,setting,value
CCCN=Cc1c(O)c(O)c(C(C)C)c2cc(C)c(-c3c(C)cc4c(C(C)C)c(O)c(O)c(C=NCCC)c4c3O)c(O)c12,TGI,[1],> 100 µM
same,TGI,[2],47.8 µM
same,TGI,[3],> 100 µM
same,TGI,[4],13.4 µM
same,TGI,[5],14.7 µM
same,TGI,[6],> 100 µM
same,TGI,[7],39.3 µM
same,TGI,[8],> 100 µM
same,TGI,[9],> 100 µM
same,TGI,[10],93.6 µM
same,TGI,[11],> 100 µM
same,TGI,[12],> 28.8 µM
same,TGI,[13],> 77.4 µM
same,TGI,[14],16.5 µM
same,TGI,[15],> 100 µM
same,TGI,[16],24.5 µM
same,TGI,[17],> 30.8 µM
same,TGI,[18],13.4 µM
same,TGI,[19],> 100 µM
same,TGI,[20],> 70.1 µM
same,TGI,[21],44.8 µM
same,TGI,[22],> 100 µM
same,TGI,[23],8.51 µM
same,TGI,[24],> 100 µM
same,TGI,[25],> 100 µM
same,TGI,[26],> 24.9 µM
same,TGI,[27],> 100 µM
same,TGI,[28],> 100 µM
same,TGI,[29],71.1 µM
same,TGI,[30],> 32.3 µM
same,TGI,[31],> 82.7 µM
same,TGI,[32],> 24.7 µM
same,TGI,[33],4.54 µM
same,TGI,[34],> 32.6 µM
same,TGI,[35],> 40.1 µM
same,TGI,[36],> 100 µM
same,TGI,[37],> 100 µM
same,TGI,[38],> 61.1 µM
same,TGI,[39],> 21 µM
same,TGI,[40],> 100 µM
same,TGI,[41],> 100 µM
same,TGI,[42],5.73 µM
same,TGI,[43],44.3 µM
same,TGI,[44],> 100 µM
same,TGI,[45],48.1 µM
same,TGI,[46],> 100 µM
same,TGI,[47],> 24.4 µM
same,TGI,[48],> 50.3 µM
same,TGI,[49],> 81.9 µM
same,TGI,[50],20.1 µM
same,TGI,[51],7.44 µM
same,TGI,[52],> 30.7 µM
same,TGI,[53],14.3 µM
same,TGI,[54],> 78.3 µM
same,TGI,[55],> 100 µM
same,TGI,[56],> 23.6 µM
same,TGI,[57],62.2 µM
same,TGI,[58],22.6 µM
same,TGI,[59],> 100 µM
same,TGI,[60],49.1 µM
same,TGI,[61],65.3 µM
CCC(=O)c1cc(C(=O)C(=S)SC)cc(C(=O)C(=S)SC)c1,TGI,[1],> 100 µM
same,TGI,[2],> 100 µM
same,TGI,[3],> 100 µM
same,TGI,[4],> 24.6 µM
same,TGI,[6],> 100 µM
same,TGI,[7],> 100 µM
same,TGI,[62],> 100 µM
same,TGI,[8],> 100 µM
same,TGI,[9],> 100 µM
same,TGI,[10],> 100 µM
same,TGI,[11],> 100 µM
same,TGI,[12],> 100 µM
same,TGI,[13],> 100 µM
same,TGI,[14],> 100 µM
same,TGI,[15],> 100 µM
same,TGI,[16],> 100 µM
same,TGI,[17],> 100 µM
same,TGI,[19],> 100 µM
same,TGI,[20],> 63.4 µM
same,TGI,[21],> 100 µM
same,TGI,[22],> 100 µM
same,TGI,[23],> 100 µM
same,TGI,[24],> 100 µM
same,TGI,[63],> 100 µM
same,TGI,[25],> 100 µM
same,TGI,[26],> 100 µM
same,TGI,[27],> 100 µM
same,TGI,[28],> 100 µM
same,TGI,[29],> 100 µM
same,TGI,[30],> 100 µM
same,TGI,[31],> 100 µM
same,TGI,[32],> 100 µM
same,TGI,[34],> 100 µM
same,TGI,[35],> 100 µM
same,TGI,[36],> 100 µM
same,TGI,[38],> 100 µM
same,TGI,[39],> 100 µM
same,TGI,[40],> 100 µM
same,TGI,[41],> 100 µM
same,TGI,[42],> 100 µM
same,TGI,[43],> 100 µM
same,TGI,[44],> 100 µM
same,TGI,[45],> 100 µM
same,TGI,[46],> 100 µM
same,TGI,[47],> 100 µM
same,TGI,[48],> 100 µM
same,TGI,[49],> 100 µM
same,TGI,[51],> 100 µM
same,TGI,[52],> 100 µM
same,TGI,[53],> 100 µM
same,TGI,[64],> 100 µM
same,TGI,[54],> 100 µM
same,TGI,[55],> 100 µM
same,TGI,[56],> 72.6 µM
same,TGI,[57],> 100 µM
same,TGI,[58],> 100 µM
same,TGI,[59],> 100 µM
same,TGI,[60],> 100 µM
same,TGI,[61],> 100 µM
c1ccc(C2(c3ccccc3)SSC3(S2)C2CC4CC(C2)CC3C4)cc1 (stereo not drawn),TGI,[1],> 100 µM
same,TGI,[3],> 100 µM
same,TGI,[4],> 100 µM
same,TGI,[5],> 100 µM
same,TGI,[6],> 100 µM
same,TGI,[7],> 100 µM
same,TGI,[8],> 100 µM
same,TGI,[10],> 100 µM
same,TGI,[11],> 100 µM
same,TGI,[12],> 100 µM
same,TGI,[14],> 100 µM
same,TGI,[16],> 100 µM
same,TGI,[17],> 100 µM
same,TGI,[18],> 100 µM
same,TGI,[19],> 100 µM
same,TGI,[20],> 100 µM
same,TGI,[21],> 100 µM
same,TGI,[22],> 100 µM
same,TGI,[23],> 100 µM
same,TGI,[63],> 100 µM
same,TGI,[25],> 100 µM
same,TGI,[26],> 100 µM
same,TGI,[27],> 100 µM
same,TGI,[31],> 100 µM
same,TGI,[32],> 100 µM
same,TGI,[33],> 100 µM
same,TGI,[34],> 100 µM
same,TGI,[35],> 100 µM
same,TGI,[36],> 100 µM
same,TGI,[37],> 100 µM
same,TGI,[38],> 100 µM
same,TGI,[39],> 100 µM
same,TGI,[40],> 100 µM
same,TGI,[41],> 100 µM
same,TGI,[43],> 100 µM
same,TGI,[45],> 100 µM
same,TGI,[48],> 100 µM
same,TGI,[49],> 100 µM
same,TGI,[65],> 100 µM
same,TGI,[51],> 100 µM
same,TGI,[52],> 100 µM
same,TGI,[53],> 100 µM
same,TGI,[64],> 100 µM
same,TGI,[54],> 100 µM
same,TGI,[56],> 100 µM
same,TGI,[58],> 100 µM
same,TGI,[59],> 100 µM
same,TGI,[60],> 100 µM
same,TGI,[61],> 100 µM
CCn1cc(C(=O)O)c(=O)c2cc(F)c(N3CCN(CN4C(=O)/C(=N\c5ncc(Cc6cc(OC)c(OC)c(OC)c6)c(N)n5)c5cc(Cl)ccc54)CC3)cc21,TGI,[1],> 100 µM
same,TGI,[2],> 100 µM
same,TGI,[3],> 100 µM
same,TGI,[4],> 100 µM
same,TGI,[6],> 100 µM
same,TGI,[7],> 100 µM
same,TGI,[62],> 100 µM
same,TGI,[8],> 100 µM
same,TGI,[9],> 100 µM
same,TGI,[10],> 100 µM
same,TGI,[11],> 100 µM
same,TGI,[12],> 100 µM
same,TGI,[13],> 100 µM
same,TGI,[14],> 100 µM
same,TGI,[15],> 100 µM
same,TGI,[16],> 100 µM
same,TGI,[17],> 100 µM
same,TGI,[19],> 100 µM
same,TGI,[20],> 100 µM
same,TGI,[21],> 100 µM
same,TGI,[22],> 100 µM
same,TGI,[23],> 100 µM
same,TGI,[24],> 100 µM
same,TGI,[63],> 100 µM
same,TGI,[25],> 100 µM
same,TGI,[26],> 100 µM
same,TGI,[27],> 100 µM
same,TGI,[28],> 100 µM
same,TGI,[29],> 100 µM
same,TGI,[30],> 100 µM
same,TGI,[31],> 100 µM
same,TGI,[32],> 100 µM
same,TGI,[34],> 100 µM
same,TGI,[35],> 100 µM
same,TGI,[36],> 100 µM
same,TGI,[38],> 100 µM
same,TGI,[39],> 100 µM
same,TGI,[40],> 100 µM
same,TGI,[41],> 100 µM
same,TGI,[42],> 100 µM
same,TGI,[43],> 100 µM
same,TGI,[44],> 100 µM
same,TGI,[45],> 100 µM
same,TGI,[46],> 100 µM
same,TGI,[47],> 100 µM
same,TGI,[48],> 100 µM
same,TGI,[49],> 100 µM
same,TGI,[51],> 100 µM
same,TGI,[52],> 100 µM
same,TGI,[53],> 100 µM
same,TGI,[64],> 100 µM
same,TGI,[54],> 100 µM
same,TGI,[55],> 100 µM
same,TGI,[56],> 100 µM
same,TGI,[57],> 100 µM
same,TGI,[58],> 100 µM
same,TGI,[59],> 100 µM
same,TGI,[60],> 100 µM
same,TGI,[61],> 100 µM
